Measured values published in PubChem BioAssay (NCI).
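Step 1: Grow cells in 96-well plates. Step 2: Expose to compound for 48 hours at 5 concentrations. Step 3: Interpolate endpoints linearly; if unreached, use highest concentration. At the GI50, growth is halved. TGI is the concentration that stops growth completely.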

Columns and labels:
Assay in all cases: DTP human tumour cell line panel, 48 h
[1] = system: 786-0 renal
[2] = system: A498 renal
[3] = system: A549 NSCLC
[4] = system: ACHN renal
[5] = system: BT-549 breast
[6] = system: CAKI-1 renal
[7] = system: CCRF-CEM leukemia
[8] = system: COLO 205 colon
[9] = system: DU-145 prostate
[10] = system: EKVX NSCLC
[11] = system: HCC-2998 colon
[12] = system: HCT-116 colon
[13] = system: HCT-15 colon
[14] = system: HL-60(TB) leukemia
[15] = system: HOP-62 NSCLC
[16] = system: HOP-92 NSCLC
[17] = system: HS 578T breast
[18] = system: HT29 colon
[19] = system: IGROV1 ovarian
[20] = system: K-562 leukemia
[21] = system: KM12 colon
[22] = system: LOX IMVI melanoma
[23] = system: M14 melanoma
[24] = system: MALME-3M melanoma
[25] = system: MCF7 breast
[26] = system: MDA-MB-231 breast
[27] = system: MDA-MB-435
[28] = system: NCI-H226 lung
[29] = system: NCI-H23 lung
[30] = system: NCI-H460 lung
[31] = system: NCI-H522 lung
[32] = system: NCI/ADR-RES ovarian
[33] = system: OVCAR-3 ovarian
[34] = system: OVCAR-4 ovarian
[35] = system: OVCAR-5 ovarian
[36] = system: OVCAR-8 ovarian
[37] = system: PC-3 prostate
[38] = system: RPMI-8226 leukemia
[39] = system: RXF 393 renal
[40] = system: SF-268 CNS
[41] = system: SF-295 CNS
[42] = system: SF-539 CNS
[43] = system: SK-MEL-2 melanoma
[44] = system: SK-MEL-28 melanoma
[45] = system: SK-MEL-5 melanoma
[46] = system: SN12C renal
[47] = system: SNB-19 CNS
[48] = system: SNB-75 CNS
[49] = system: SR leukemia
[50] = system: SW-620 colon
[51] = system: T-47D breast
[52] = system: TK-10 renal
[53] = system: U251 CNS
[54] = system: UACC-257 melanoma
[55] = system: UACC-62 melanoma
[56] = system: UO-31 renal
[57] = system: MDA-N
[58] = system: MOLT-4 leukemia
[59] = system: SK-OV-3 ovarian

## CC1=C(C(=O)c2ccccc2)C23C(=O)N(c4ccccc4)C(=O)C2=C(O)C=CC3(O)N1 (centres undefined)
[1]
  TGI: > 100 µM
[2]
  TGI: > 100 µM
[3]
  TGI: > 100 µM
[4]
  TGI: 40.4 µM
[5]
  TGI: 49.2 µM
[6]
  TGI: > 100 µM
[7]
  TGI: > 100 µM
[8]
  TGI: > 100 µM
[9]
  TGI: > 100 µM
[10]
  TGI: > 100 µM
[11]
  TGI: 56.4 µM
[12]
  TGI: > 100 µM
[13]
  TGI: > 100 µM
[14]
  TGI: 50.7 µM
[15]
  TGI: > 100 µM
[16]
  TGI: 60 µM
[17]
  TGI: > 100 µM
[18]
  TGI: 32.3 µM
[19]
  TGI: 51.9 µM
[20]
  TGI: 75.1 µM
[21]
  TGI: 53.5 µM
[22]
  TGI: 61.1 µM
[23]
  TGI: > 100 µM
[24]
  TGI: 65.1 µM
[25]
  TGI: > 100 µM
[26]
  TGI: > 100 µM
[27]
  TGI: > 100 µM
[28]
  TGI: > 100 µM
[29]
  TGI: > 100 µM
[30]
  TGI: > 100 µM
[31]
  TGI: 28.9 µM
[32]
  TGI: > 100 µM
[33]
  TGI: 58.9 µM
[34]
  TGI: > 100 µM
[35]
  TGI: > 100 µM
[36]
  TGI: 98.9 µM
[37]
  TGI: > 100 µM
[38]
  TGI: > 100 µM
[39]
  TGI: 43 µM
[40]
  TGI: > 100 µM
[41]
  TGI: > 100 µM
[42]
  TGI: > 100 µM
[43]
  TGI: 57.3 µM
[44]
  TGI: 39.2 µM
[45]
  TGI: 41.9 µM
[46]
  TGI: > 100 µM
[47]
  TGI: > 100 µM
[48]
  TGI: 77.5 µM
[49]
  TGI: 46.3 µM
[50]
  TGI: 72.7 µM
[51]
  TGI: > 100 µM
[52]
  TGI: > 100 µM
[53]
  TGI: 81.5 µM
[54]
  TGI: > 100 µM
[55]
  TGI: 48 µM
[56]
  TGI: 37.8 µM

## NNC(=O)c1nnn(CCc2ccccc2)c1C(=O)NN
[1]
  TGI: > 100 µM
[3]
  TGI: > 100 µM
[4]
  TGI: > 100 µM
[5]
  TGI: > 100 µM
[6]
  TGI: > 100 µM
[7]
  TGI: > 100 µM
[8]
  TGI: > 100 µM
[9]
  TGI: > 100 µM
[10]
  TGI: > 100 µM
[11]
  TGI: > 100 µM
[12]
  TGI: > 100 µM
[13]
  TGI: > 100 µM
[14]
  TGI: > 100 µM
[15]
  TGI: > 100 µM
[18]
  TGI: > 100 µM
[20]
  TGI: > 100 µM
[21]
  TGI: > 100 µM
[22]
  TGI: > 100 µM
[23]
  TGI: > 100 µM
[24]
  TGI: > 100 µM
[25]
  TGI: > 100 µM
[26]
  TGI: > 100 µM
[27]
  TGI: > 100 µM
[57]
  TGI: > 100 µM
[58]
  TGI: > 100 µM
[29]
  TGI: > 100 µM
[30]
  TGI: > 100 µM
[32]
  TGI: > 100 µM
[33]
  TGI: > 100 µM
[34]
  TGI: > 100 µM
[35]
  TGI: > 100 µM
[36]
  TGI: > 100 µM
[37]
  TGI: > 100 µM
[38]
  TGI: > 100 µM
[41]
  TGI: > 100 µM
[43]
  TGI: > 100 µM
[44]
  TGI: > 100 µM
[45]
  TGI: > 100 µM
[46]
  TGI: > 100 µM
[47]
  TGI: > 100 µM
[49]
  TGI: > 100 µM
[52]
  TGI: > 100 µM
[53]
  TGI: > 100 µM
[54]
  TGI: > 100 µM
[56]
  TGI: > 100 µM

## COC(=O)c1cc(O)c2c(c1C(=O)OC)C[C@H]1[C@@H]3CC=C4C[C@@H](O)CC[C@]4(C)[C@H]3CC[C@]21C
[1]
  GI50: 2.42 µM
  TGI: 6.7 µM
[2]
  GI50: 3.7 µM
  TGI: 20.1 µM
[3]
  GI50: 3.06 µM
  TGI: 11.7 µM
[4]
  GI50: 3.64 µM
  TGI: 17 µM
[5]
  GI50: 2.29 µM
  TGI: 6.98 µM
[6]
  GI50: 2.89 µM
  TGI: 9.07 µM
[7]
  GI50: 1.71 µM
  TGI: 4.99 µM
[9]
  GI50: 3.89 µM
  TGI: 16.1 µM
[10]
  GI50: 3.29 µM
  TGI: 21.7 µM
[11]
  GI50: 3.74 µM
  TGI: 16 µM
[12]
  GI50: 3.09 µM
  TGI: 14.6 µM
[13]
  GI50: 3.03 µM
  TGI: 35.1 µM
[14]
  GI50: 3.03 µM
  TGI: 6.93 µM
[15]
  GI50: 2.24 µM
  TGI: 6.27 µM
[16]
  GI50: 2.59 µM
  TGI: 8.2 µM
[17]
  GI50: 2.78 µM
  TGI: 19.5 µM
[18]
  GI50: 2.74 µM
  TGI: 7 µM
[19]
  GI50: 3.89 µM
  TGI: 15.9 µM
[20]
  GI50: 2.41 µM
  TGI: 7.77 µM
[21]
  GI50: 2.91 µM
  TGI: 12.2 µM
[23]
  GI50: 3.47 µM
  TGI: 18.7 µM
[24]
  GI50: 2.71 µM
  TGI: 8.15 µM
[25]
  GI50: 3.15 µM
  TGI: 12.8 µM
[26]
  GI50: 2.52 µM
  TGI: 7.41 µM
[27]
  GI50: 3.01 µM
  TGI: 20.6 µM
[58]
  GI50: 2.22 µM
  TGI: 5.56 µM
[28]
  GI50: 3.78 µM
  TGI: 20 µM
[29]
  GI50: 3.5 µM
  TGI: 23.5 µM
[30]
  GI50: 3.24 µM
  TGI: 12.7 µM
[31]
  GI50: 2.17 µM
  TGI: 5.44 µM
[32]
  GI50: 3.61 µM
  TGI: 24.4 µM
[33]
  GI50: 2.19 µM
  TGI: 4.94 µM
[34]
  GI50: 3.59 µM
  TGI: 15.8 µM
[35]
  GI50: 4.82 µM
  TGI: 23.9 µM
[36]
  GI50: 3.33 µM
  TGI: 16.9 µM
[37]
  GI50: 2.51 µM
  TGI: 13.3 µM
[38]
  GI50: 1.57 µM
  TGI: 4.96 µM
[39]
  GI50: 1.19 µM
  TGI: 3.39 µM
[40]
  GI50: 3.13 µM
  TGI: 13 µM
[41]
  GI50: 1.72 µM
  TGI: 4.4 µM
[42]
  GI50: 2.1 µM
  TGI: 6.65 µM
[43]
  GI50: 2.79 µM
  TGI: 5.6 µM
[44]
  GI50: 2.71 µM
  TGI: 8.59 µM
[59]
  GI50: 4.75 µM
  TGI: 27.4 µM
[46]
  GI50: 3.57 µM
  TGI: 26.8 µM
[47]
  GI50: 4.1 µM
  TGI: 23.8 µM
[48]
  GI50: 9.75 µM
  TGI: 55.9 µM
[49]
  GI50: 3.41 µM
  TGI: > 100 µM
[50]
  GI50: 3.48 µM
  TGI: 17.6 µM
[51]
  GI50: 1.51 µM
  TGI: 6.91 µM
[52]
  GI50: 3.83 µM
  TGI: 11.8 µM
[53]
  GI50: 1.93 µM
  TGI: 7.82 µM
[54]
  GI50: 2.54 µM
  TGI: 7.5 µM
[56]
  GI50: 2.18 µM
  TGI: 4.26 µM
